From patent US9981983B2, “Thienopyranones as kinase inhibitors” (SignalRx Pharmaceuticals, Inc., priority 2008, dated 2018)

Key:
[1] = tested on: PI-3 kinases; settings: Vlahos et al. J. Biol. Chem. 1994; cited from earlier work
[2] = tested on: PC3 cells; test: PC3 prostate cancer cell proliferation (WST); assay type: cell-based; settings: Homo sapiens, PC-3; PC3 cells; read-out: PC3 IC50 Proliferation
Description: PC3 cells were obtained from the American Type Culture Collection (ATCC, Manassas, Va., Cat.# CRL-1435) Two thousand cells from the prostate cancer line PC3 were placed in 50 μL of complete RPMI 1640 media (Invitrogen, Carlsbad, Calif., Cat.#22400-105) with 10% fetal bovine serum (Invitrogen, Carlsbad, Calif., Cat.#10438-026) into each well of 96 well cell culture plates in a hexaplicate sampling pattern. A 50 μL aliquot of test compound (prepared from stock test compounds in DMSO diluted into media) was added to the appropriate well such that the final concentrations of test compound were 200, 40, 8, 1.6, 0.32, 0.064, 0.0128, 0.00256, and 0 μM and the final DMSO concentration was less than or equal to 0.2%.
The plates were incubated for 72 hours 37° C. in an atmosphere of 5% CO2. At the end of this time a 10 μL aliquot of WST solution (Roche Applied Science, Mannheim, Germany) was added into each of the wells. Cells were exposed to the WST solution for 4 hours. A SpectraMax Plus spectrophotometric plate reader (Molecular Devices, Sunnydale, Calif.) was then used to measure the optical density at 450 nm (OD450 nm). Sigmoidal curves were drawn for the dose responses and IC50 values were calculated using the software package GraphPad Prism4 (GraphPad Software, Inc., San Diego, Calif.).

[3] = target: mTOR (Homo sapiens, UniProt P42345); test: mTOR inhibition; assay type: biochemical
[4] = tested on: pAKT serine 473 level in PC3 cells; test: pAKT status in IGF-1 stimulated PC3 cells (Ser473 pAKT ELISA); assay type: cell-based; settings: Homo sapiens, PC-3; PC3 cells; read-out: IC50 pAKT (Pathway Inhibition)
Description: PC3 cells were obtained from the American Type Culture Collection (ATCC, Manassas, Va., Cat.# CRL-1435). Two million cells from the prostate cancer line PC3 were placed into 6 cm culture dishes and allowed to grow in complete RPMI 1640 media (Invitrogen, Carlsbad, Calif., Cat.#22400-105) with 10% fetal bovine serum (Invitrogen, Carlsbad, Calif., Cat.#10438-026). After this time period the cells were serum starved for 5 hours followed by application of the test compound. Test compound was added as a DMSO (dimethyl sulfoxide) solution such that the final DMSO concentration in the cell media was less than or equal to 0.2% by volume After 30 minutes of exposure the growth factor stimulant, human IGF-1 (PeproTech, Inc., Rocky Hill, N.J., Cat.#100-11), was added to a final concentration of 0.1 μg/ml in each well. After 30 minutes of IGF-1 exposure, cells were removed from the media and cell lysates were prepared using RIPA Lysis buffer (Upstate, Lake Placid, N.Y., Cat.#20-188), keeping on ice. The pAKT serine 473 level was measured in duplicate samples of the cell lysates using commercially available assays such as the Pathscan® Sandwich ELISA kit for Ser473 pAKT (Cell Signaling, Danvers, Mass., Cat.#7160). A SpectraMax Plus spectrophotometric plate reader (Molecular Devices, Sunnydale, Calif.) was used to measure the optical density signal for pAKT at 450 nm (OD450 nm). The pAKT OD450 nm readings were normalized by total protein amount in the cell lysates determined by standard methods.
Concentrations of test compounds required to inhibit IGF stimulated pAKT levels to 50% of maximum levels in PC3 cells (termed DM50 for decreased maximum 50%) were calculated by inputting the dose responses in the software package GraphPad Prism4 (GraphPad Software, Inc., San Diego, Calif.).
By these methods a number of compounds of the invention were evaluated and the concentration needed to reduce the detectable pAKT to 50% of the maximal uninhibited signal was calculated. These values (in μMolar units) are listed in Table 8 under the column heading PC3 pAKT IC50 (μMolar).

[5] = tested on: 786-0 renal cell carcinoma xenograft; test: 786-0 renal cell carcinoma xenograft mouse model; assay type: in vivo, nude mice; settings: 25 mg/kg, ip, 3×/wk for 4 weeks
Description: To determine if Cpd 9 has anti-tumor effects, an in vivo study was conducted in a 786-0 renal cell carcinoma xenograft model, 786-0 cells (2×10^6) were inoculated subcutaneously into nude mice in the flank area and tumor growth was monitored with calipers via external measurements. Tumor volume was calculated using the formula volume=(length×width^2)/2. When the average tumor volume reached 400 mm^3, mice were randomly divided into 2 groups and treated with either DMSO (control) or Cpd 9 (25 mg/kg, ip) three times weekly (M, W, F) for two weeks.
To determine if Cpd 28 has anti-tumor effects, an in vivo study was conducted in a 786-0 renal cell carcinoma xenograft model, 786-0 cells (2×10^6) were inoculated subcutaneously into nude mice in the flank area and tumor growth was monitored with calipers via external measurements. Tumor volume was calculated using the formula volume=(length×width^2)/2. Treatment was started when tumors reached an average volume of 300 mm^3. […] DMSO was used as control since this was the vehicle the compounds were dissolved in. Tumor size was monitored twice weekly and body weight was monitored once weekly. Means and standard deviations were calculated and the Student t test method was used for statistical comparisons.

IC50 [2]: 7500 to 12100 nM
IC50 [3]: 1060 nM
IC50 [4]: 1300 nM
Structure (SMILES): O=c1cc(N2CCOCC2)oc2c(-c3ccccc3)cccc12 [LY294002, 2-morpholino-8-phenyl-4H-chromen-4-one, reference compound]
IC50 [1]: 1400 nM
tumor growth inhibition compared to control [5]: 54%
